Experimental data from publication PMC7359870 (Journal of the American Chemical Society, 2020).
“Also recorded” adds a separate entry of the source. Starred links: 1 amine or outer side, 2 acyl side, 3 side chain; linkers in the order of their positions; H or OH if unused. Non-standard residues stand in square brackets, D forms with d. Residues, ends and D or L forms follow the SMILES beside them. *: point of attachment. X1 = CC(C)C[C@H](NC(=O)N(Cc1ccccc1)C[C@@H](O)[C@H](Cc1ccccc1)N*)C(=O)N[C@H](C(N)=O)C(C)C; X2 = CC(C)[C@H](NC(=O)[C@H](C)NC(=O)N(Cc1ccccc1)C[C@@H](O)[C@H](Cc1ccccc1)N*)C(N)=O; NH(CH2)8CO = O=C(CCCCCCCCN[*:1])[*:2]; Boc = CC(C)(C)OC(=O)*; Aib = CC(C)(N)C(=O)O; Ava = NCCCCC(=O)O

Columns and labels:
γ-secretase [1] = target: T1, γ-secretase (Homo sapiens, UniProt P49768); assay: Enzyme inhibition kinetics; format: biochemical
[2] = target: presenilin-1 (PS1) N-terminal fragment (NTF) of γ-secretase (Homo sapiens, UniProt P49768); conditions: solubilized lysates from γ-secretase-expressing human embryonic kidney 293 cells
purified γ-secretase = purified γ-secretase (Homo sapiens, UniProt P49768); assay: Purified enzyme assay: inhibition of γ-secretase; format: biochemical
γ-secretase [3] = target: T1, γ-secretase; assay: Cross-competition kinetic experiment between two inhibitors; format: biochemical; conditions: for cross-competition with HPI 2 for binding: second inhibitor HPI 2 (docking site); for cross-competition with TSA 17 for binding: second inhibitor TSA 17 (active site)

SMILES | type of inhibition (enzyme inhibition kinetics) (γ-secretase [1]) | labelling of PS1 NTF by active-site-directed photoprobe TSA-Bpa-Bt [2] | labelling of PS1 NTF by docking-site-directed photoprobe HPI-Bpa-Bt [2] | also measured
CC[C@H](C)[C@H](NC(=O)[C@@H](NC(=O)[C@@H](NC(=O)C(C)(C)NC(=O)CNC(=O)[C@@H](NC(=O)OC(C)(C)C)C(C)C)C(C)C)C(C)C)C(=O)NC(C)(C)C(=O)N[C@@H](Cc1ccccc1)C(=O)N[C@H](C(=O)NC(C)(C)C(=O)NCCCCCCCCC(=O)N[C@H](C(=O)N[C@@H](Cc1ccccc1)[C@H](O)CN(Cc1ccccc1)C(=O)N[C@@H](C)C(=O)N[C@H](C(N)=O)C(C)C)C(C)C)C(C)C [Compound 16] (Boc-VG[Aib]VVI[Aib]FV[Aib][NH(CH2)8CO]V-X2; N-terminus and C-terminus assumed) | noncompetitive inhibition | Decreased photolabelling; also recorded: decreased labelling | Decreased photolabelling; also recorded: decreased labelling | 
CC[C@H](C)[C@H](NC(=O)[C@H](NC(=O)[C@H](NC(=O)C(C)(C)NC(=O)CNC(=O)[C@@H](NC(=O)OC(C)(C)C)C(C)C)C(C)C)C(C)C)C(=O)NC(C)(C)C(=O)N[C@@H](Cc1ccccc1)C(=O)N[C@H](C(=O)NC(C)(C)C(=O)NCCCCCCCCC(=O)N[C@H](C(=O)N[C@@H](Cc1ccccc1)[C@H](O)CN(Cc1ccccc1)C(=O)N[C@@H](CC(C)C)C(=O)N[C@H](C(N)=O)C(C)C)C(C)C)C(C)C [Compound 9, Boc-Val-Gly-Aib-^DVal-^D Val-Ile-Aib-Phe-Val-Aib-NH(CH2)8CO-Val-Phe-ψ-Phe-Leu-Val-NH2] (Boc-VG[Aib][dV][dV]I[Aib]FV[Aib][NH(CH2)8CO]V-X1) |  |  |  | reduction of inhibitory potency relative to 6 (purified γ-secretase; relative to HPI-TSA 6): decreased nearly eight-fold
CC[C@H](C)[C@H](NC(=O)[C@@H](NC(=O)[C@@H](NC(=O)C(C)(C)NC(=O)CNC(=O)[C@@H](NC(=O)OC(C)(C)C)C(C)C)C(C)C)C(C)C)C(=O)NC(C)(C)C(=O)N[C@@H](Cc1ccccc1)C(=O)N[C@H](C(=O)NC(C)(C)C(=O)NCCCCCCCCC(=O)N[C@H](C(=O)N[C@@H](Cc1ccccc1)[C@H](O)CN(Cc1ccccc1)C(=O)N[C@@H](CC(C)C)C(=O)N[C@H](C(N)=O)C(C)C)C(C)C)C(C)C [Compound 6, Boc-Val-Gly-Aib-Val-Val-Ile-Aib-Phe-Val-Aib-NH(CH2)8CO-Val-Phe-ψ-Phe-Leu-Val-NH2] (Boc-VG[Aib]VVI[Aib]FV[Aib][NH(CH2)8CO]V-X1) | noncompetitive inhibition | Decreased photolabelling; also recorded: decreased labelling | Decreased photolabelling; also recorded: decreased labelling | cross-competition with HPI 2 for binding (γ-secretase [3]): competed; cross-competition with HPI 2 for binding (γ-secretase [3]; listed as HPI-TSA 6): competes; cross-competition with TSA 17 for binding (γ-secretase [3]): competed; cross-competition with TSA 17 for binding (γ-secretase [3]; listed as HPI-TSA 6): competes
CC[C@H](C)[C@H](NC(=O)[C@@H](NC(=O)[C@@H](NC(=O)C(C)(C)NC(=O)CNC(=O)[C@@H](NC(=O)OC(C)(C)C)C(C)C)C(C)C)C(C)C)C(=O)NC(C)(C)C(=O)N[C@@H](Cc1ccccc1)C(=O)N[C@H](C(=O)NC(C)(C)C(=O)NCCCCC(=O)N[C@H](C(=O)N[C@@H](Cc1ccccc1)[C@H](O)CN(Cc1ccccc1)C(=O)N[C@@H](CC(C)C)C(=O)N[C@H](C(N)=O)C(C)C)C(C)C)C(C)C [Compound 5, Boc-Val-Gly-Aib-Val-Val-Ile-Aib-Phe-Val-Aib-NH(CH2)4CO-Val-Phe-ψ-Phe-Leu-Val-NH2] (Boc-VG[Aib]VVI[Aib]FV[Aib][Ava]V-X1) |  |  |  | potency compared to TSA 1 or HPI 2 (fold increase) (purified γ-secretase; relative to IC50 of TSA 1 or HPI 2): 4-to-6 fold
